Test results from US9540377B2, “2,6,7,8 substituted purines as HDM2 inhibitors” (Merck Sharp & Dohme Corp., priority 2013, dated 2017).
Read-outs that look alike come from different tables or passages of the source.

Experiments:
HDM2 = HDM2 (Homo sapiens (Human), UniProt Q00987); assay: FRET assay (FRET IC50 of Tables 1-11); assay type: binding
[1] = biological target: HDM2 (truncated, residues 17 to 125, containing p53 binding surface) (Homo sapiens (Human), UniProt Q00987); assay: HDM2 FRET assay (inhibition of binding of FITC labeled p53-site peptide to HDM2); conditions: Table 18
Sequence of HDM2 (truncated, residues 17 to 125, containing p53 binding surface) (Q00987 17-125): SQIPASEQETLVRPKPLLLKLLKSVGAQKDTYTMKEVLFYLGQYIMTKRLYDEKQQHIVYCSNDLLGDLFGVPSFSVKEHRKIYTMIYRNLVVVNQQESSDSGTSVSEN
Text: IC50 DETERMINATIONS: Dose-response curves were plotted from the inhibition data, from 10 point serial dilutions of inhibitory compounds. Concentration of compound was plotted against em520/Cem495 ratio signal. To generate IC50 values, the dose-response curves were fitted to a standard sigmoidal curve and IC50 values were derived by nonlinear regression analysis.

Sequence of HDM2 (Q00987 17-125): as above

Compound | IC50 (HDM2) [µM] | other results
6-{[(1R)-1-cyclopropylethyl]ammo}-8-phenyl-7-[4-(trifluoromethyl)benzyl]-7H-purine-2-carboxylic acid [Example 1.96] | 0.371 | –
CC(C)c1ccnc(-c2nc3nc(-c4noc(=O)[nH]4)nc(N[C@H](C)C4CCC4)c3n2C[C@@H]2CC[C@@H](C)C(F)(F)C2)c1 (stereo in doubt) [Example 18.11, 3-(6-(((R)-1-cyclobutylethyl)amino)-7-((trans-3,3-difluoro-4-methylcyclohexyl)methyl)-8-(4-isopropylpyridin-2-yl)-7H-purin-2-yl)-1,2,4-oxadiazol-5(4H)-one] | – | IC50 [1]: 0.00279 µM
COc1ccc(C)cc1-c1nc2nc(C(=O)O)nc(N[C@H](C)C3CC3(F)F)c2n1Cc1ccc(C(F)(F)F)cc1 (stereo partly drawn) [Example 7.19, 6-{[(1R)-1-(2,2-difluorocyclopropyl)ethyl]amino}-8-(2-methoxy-5-methylphenyl)-7-[4-(trifluoromethyl)benzyl]-7H-purine-2-carboxylic acid] | 0.0722 | –
C[C@@H](Nc1nc(C(=O)O)nc2nc(N3CCCCC3Cc3ccccc3)n(Cc3ccc(C(F)(F)F)cc3)c12)C1CCC1 (stereo partly drawn) [Example 9.3, 8-(2-benzylpiperidin-1-yl)-6-{[(1R)-1-cyclobutylethyl]amino}-7-[4-(trifluoromethyl)benzyl]-7H-purine-2-carboxylic acid] | – | IC50 (HDM2; Table 9): 0.0207 µM
